Holding throughout (experiment): relative viability (nuclei count vs DMSO), 5 days (fraction); higher = more cells survive
Compound in assay [1]: C1/C(=C\C2=CC=CS2)/C(=O)/C(=C/C3=CC=CS3)/C1 + CS(=O)(=O)N1CCN(Cc2cc3nc(-c4cccc5[nH]ncc45)nc(N4CCOCC4)c3s2)CC1 [Pictilisib] (partner 1 µM)
In short, it runs like this:
(§1)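 Lung cancer cell lines were seeded in 1536-well plates and dosed by pin tool the next day, with either a single drug or a fixed anchor-drug dose combined with five library-drug doses (not always all listed) spaced in √10 steps. Five days later, one step fixed the cells and stained their nuclei (final 0.05% Triton X-100, 1% formaldehyde, 1 ug/ml Hoechst), and nuclei were counted on 4× images. Relative viability is the nuclei count in treated wells divided by the count in vehicle wells, and each value is the median of duplicate plates.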

Compound in assay [2]: C[C@]12O[C@H](C[C@]1(O)CO)n1c3ccccc3c3c4c(c5c6ccccc6n2c5c31)CNC4=O [Lestaurtinib] + CC(=O)Nc1cccc(-n2c(=O)n(C3CC3)c(=O)c3c(Nc4ccc(I)cc4F)n(C)c(=O)c(C)c32)c1 [Trametinib] (partner 0.02 µM)
In short, it runs like this:
as §1

Compound in assay [3]: C[C@]12O[C@H](C[C@]1(O)CO)n1c3ccccc3c3c4c(c5c6ccccc6n2c5c31)CNC4=O [Lestaurtinib] + CC(=O)c1c(C)c2cnc(Nc3ccc(N4CCNCC4)cn3)nc2n(C2CCCC2)c1=O [Palbociclib] (partner 0.5 µM)
The method, boiled down: as §1

Compound in the assay “Lestaurtinib + AZD7762”: C[C@]12O[C@H](C[C@]1(O)CO)n1c3ccccc3c3c4c(c5c6ccccc6n2c5c31)CNC4=O [Lestaurtinib] + NC(=O)Nc1cc(-c2cccc(F)c2)sc1C(=O)N[C@H]1CCCNC1 [AZD7762] (partner 0.2 µM)
In short, it runs like this:
as §1

In the case of NCI-H2347, the relative viability in assay [1] (first compound 0.2 µM) was 0.652; in assay [1] (first compound 0.6325 µM) it was 0.63; in assay [1] (first compound 2 µM), 0.928; in assay [1] (first compound 6.325 µM), 0.889; in assay [1] (first compound 20 µM), 0.446; in assay [2] (first compound 0.005 µM) it was 0.288. Besides, the relative viability was 0.305 in assay [2] (first compound 0.01581 µM); 0.299 in assay [2] (first compound 0.05 µM); 0.278 in assay [2] (first compound 0.1581 µM); 0.301 in assay [2] (first compound 0.5 µM); 0.433 in assay [3] (first compound 0.005 µM); 0.438 in assay [3] (first compound 0.01581 µM). Moreover, the relative viability in assay [3] (first compound 0.05 µM) amounted to 0.535; in assay [3] (first compound 0.1581 µM), 0.48; in assay [3] (first compound 0.5 µM) it was 0.501; in the assay with Lestaurtinib + AZD7762 (first compound 0.005 µM), 0.7; with Lestaurtinib + AZD7762 (first compound 0.01581 µM), 0.83; with Lestaurtinib + AZD7762 (first compound 0.05 µM) it was 0.648. The figures for the relative viability with Lestaurtinib + AZD7762 (first compound 0.1581 µM) and with Lestaurtinib + AZD7762 (first compound 0.5 µM) were 0.568 and 0.466, respectively.

In the case of NCI-H2405, the relative viability in assay [1] (first compound 0.2 µM) turned out to be 0.491; in assay [1] (first compound 0.6325 µM) it was 0.386; in assay [1] (first compound 2 µM), 0.572; in assay [1] (first compound 6.325 µM), 0.452; in assay [1] (first compound 20 µM), 0.416; in assay [2] (first compound 0.005 µM) it was 0.701. Also, the relative viability turned out to be 0.656 in assay [2] (first compound 0.01581 µM); 0.572 in assay [2] (first compound 0.05 µM); 0.54 in assay [2] (first compound 0.1581 µM); 0.274 in assay [2] (first compound 0.5 µM); 0.518 in assay [3] (first compound 0.005 µM); 0.546 in assay [3] (first compound 0.01581 µM). Moreover, the relative viability in assay [3] (first compound 0.05 µM) stood at 0.492; in assay [3] (first compound 0.1581 µM), 0.515; in assay [3] (first compound 0.5 µM) it was 0.275; with Lestaurtinib + AZD7762 (first compound 0.005 µM) it was 0.746; with Lestaurtinib + AZD7762 (first compound 0.01581 µM), 0.885; with Lestaurtinib + AZD7762 (first compound 0.05 µM) it was 0.492. In addition, the relative viability with Lestaurtinib + AZD7762 (first compound 0.1581 µM) was 0.662; with Lestaurtinib + AZD7762 (first compound 0.5 µM), 0.218.

Consider NCI-H3122, for which the relative viability was 0.681 in assay [1] (first compound 0.2 µM); 0.579 in assay [1] (first compound 0.6325 µM); 0.718 in assay [1] (first compound 2 µM); 0.466 in assay [1] (first compound 6.325 µM); 0.642 in assay [1] (first compound 20 µM); 0.298 in assay [2] (first compound 0.005 µM). The relative viability in assay [2] (first compound 0.01581 µM) came out at 0.228; in assay [2] (first compound 0.05 µM), 0.228; in assay [2] (first compound 0.1581 µM), 0.223; in assay [2] (first compound 0.5 µM) it was 0.335; in assay [3] (first compound 0.005 µM), 0.201; in assay [3] (first compound 0.01581 µM), 0.21. In addition, the relative viability in assay [3] (first compound 0.05 µM) was found to be 0.2; in assay [3] (first compound 0.1581 µM), 0.229; in assay [3] (first compound 0.5 µM), 0.22; with Lestaurtinib + AZD7762 (first compound 0.005 µM) it was 1.05; in the assay with Lestaurtinib + AZD7762 (first compound 0.01581 µM) it was 1.08; with Lestaurtinib + AZD7762 (first compound 0.05 µM), 1.1. Besides, the results for the relative viability with Lestaurtinib + AZD7762 (first compound 0.1581 µM) and with Lestaurtinib + AZD7762 (first compound 0.5 µM) were 1.32 and 0.537, respectively.

With PC-3 [JPC-3], the relative viability in assay [1] (first compound 0.2 µM) is 0.65; in assay [1] (first compound 0.6325 µM), 0.765; in assay [1] (first compound 2 µM) it was 0.798; in assay [1] (first compound 6.325 µM) it was 0.629; in assay [1] (first compound 20 µM) it was 0.719; in assay [2] (first compound 0.005 µM), 0.766. Also, the relative viability in assay [2] (first compound 0.01581 µM) came out at 0.709; in assay [2] (first compound 0.05 µM) it was 0.779; in assay [2] (first compound 0.1581 µM), 0.575; in assay [2] (first compound 0.5 µM), 0.585; in assay [3] (first compound 0.005 µM), 0.531; in assay [3] (first compound 0.01581 µM), 0.611. The relative viability in assay [3] (first compound 0.05 µM) worked out at 0.557; in assay [3] (first compound 0.1581 µM), 0.575; in assay [3] (first compound 0.5 µM), 0.544; with Lestaurtinib + AZD7762 (first compound 0.005 µM), 0.759; with Lestaurtinib + AZD7762 (first compound 0.01581 µM), 1.04; in the assay with Lestaurtinib + AZD7762 (first compound 0.05 µM), 0.688. Also, the relative viability in the assay with Lestaurtinib + AZD7762 (first compound 0.1581 µM) was 0.586; with Lestaurtinib + AZD7762 (first compound 0.5 µM), 0.485.

With PC-14, the relative viability in assay [1] (first compound 0.2 µM) came to 0.815; in assay [1] (first compound 0.6325 µM) it was 0.654; in assay [1] (first compound 2 µM) it was 0.69; in assay [1] (first compound 6.325 µM), 0.755; in assay [1] (first compound 20 µM), 0.737; in assay [2] (first compound 0.005 µM), 0.793. The relative viability in assay [2] (first compound 0.01581 µM) stood at 0.787; in assay [2] (first compound 0.05 µM) it was 0.701; in assay [2] (first compound 0.1581 µM), 0.548; in assay [2] (first compound 0.5 µM), 0.0827; in assay [3] (first compound 0.005 µM), 0.509; in assay [3] (first compound 0.01581 µM), 0.594. The relative viability is 0.356 in assay [3] (first compound 0.05 µM); 0.415 in assay [3] (first compound 0.1581 µM); 0.115 in assay [3] (first compound 0.5 µM); 0.336 in the assay with Lestaurtinib + AZD7762 (first compound 0.005 µM); 0.57 with Lestaurtinib + AZD7762 (first compound 0.01581 µM); 0.362 with Lestaurtinib + AZD7762 (first compound 0.05 µM). In addition, the relative viability was 0.248 in the assay with Lestaurtinib + AZD7762 (first compound 0.1581 µM) and 0.146 in the assay with Lestaurtinib + AZD7762 (first compound 0.5 µM).

As to RERF-LC-KJ, the relative viability in assay [1] (first compound 0.2 µM) is 0.566; in assay [1] (first compound 0.6325 µM), 0.583; in assay [1] (first compound 2 µM), 0.583; in assay [1] (first compound 6.325 µM) it was 0.42; in assay [1] (first compound 20 µM) it was 0.494; in assay [2] (first compound 0.005 µM), 0.946. Further, the relative viability in assay [2] (first compound 0.01581 µM) was 0.879; in assay [2] (first compound 0.05 µM), 0.736; in assay [2] (first compound 0.1581 µM) it was 0.701; in assay [2] (first compound 0.5 µM), 0.478; in assay [3] (first compound 0.005 µM) it was 1.15; in assay [3] (first compound 0.01581 µM), 1.15. Moreover, the relative viability was 0.845 in assay [3] (first compound 0.05 µM); 0.87 in assay [3] (first compound 0.1581 µM); 0.565 in assay [3] (first compound 0.5 µM); 1.1 with Lestaurtinib + AZD7762 (first compound 0.005 µM); 1.16 with Lestaurtinib + AZD7762 (first compound 0.01581 µM); 0.729 with Lestaurtinib + AZD7762 (first compound 0.05 µM). Moreover, the relative viability came to 0.984 with Lestaurtinib + AZD7762 (first compound 0.1581 µM) and 0.61 in the assay with Lestaurtinib + AZD7762 (first compound 0.5 µM).

(Values after the supplement of paper PMC10307832.)
